The record followed here is US20040018193A1 (priority 2002, published 2004).

Test [1] relates to murine macrophages (RAW 264.7). The test is classed as cell-based.
The test system of test [2] is vaccinia virus. It is filed as cell-based.
Test [3] has as its system Bacillus anthracis Sterne strain. Details: species or system DBA/2 mice. As to conditions: mouse, in vivo.
Test [4] relates to primary murine splenocytes. Set-up: species or system Balb/c mice. The following applies: mouse, in vivo.
The subject of test [5] is human neutrophils. It is filed as cell-based. The following applies: cytokine-treated neutrophils; donor-dependent; FIGS. 10 and 11.
Test [6] concerns human neutrophils. It is filed as cell-based. The following applies: for IL-8 production by neutrophils: cytokine-stimulated, FIG. 12.
In the next test the test system is B. anthracis (Sterne). Set-up: species or system A/J mice. As to conditions: mouse, in vivo; for mice still alive: ip.
Test [7] has as its system Vaccinia virus (strain WR). Details: species or system Balb/C mice. As to conditions: mouse, in vivo.
Another test has as its system Colon-26 cells. Details: species or system Balb/c mice. As to conditions: mouse, in vivo.
Test [8] deals with VEE virus. Set-up: species or system mice. As to conditions: mouse, in vivo.
The subject of test [9] is VEE virus. Set-up: species or system mice. As to conditions: mouse, in vivo. The source holds these as a separate data set.
The subject of test [10] is murine peritoneal exudate cells. Details: species or system Balb/c mice. The following applies: mouse, in vivo.
Test [11] has as its system vaccinia virus. It is filed as in vivo.
The next test relates to murine PECs. It is filed as cell-based, BALB/c mice.

For the molecule `CC(=O)O.CNC(=N)NCCC[C@H](N)C(=O)O` [L-NMA, N^G-monomethyl-L-arginine acetate, reference compound], in [1], the NO production result was “inhibit NO production”. In addition, the VV replication entry in the test on vaccinia virus [2] is given as “restored VV replication”.

Regarding `O=C(O)c1cn(C2CC2)c2cc(N3CCNCC3)c(F)cc2c1=O` [ciprofloxacin], the survival in [3] is given as 40%.

As for GM-CSF, the CD25 marker expression result in test [4] is “significant activation”. Besides, the superoxide anion levels result with human neutrophils [5] is “increased superoxide anion levels”. The “IL-8 production by neutrophils” value with human neutrophils [6] was “significantly increased”. For the same molecule, in the test on B. anthracis (Sterne), the survival entry was “increased survival” and the mice still alive worked out at 25%.

As for IFN-α, in test [7], the mice remained alive came out at 95% and the mice still alive is 95%.

Consider IL-8: cytokine, for which the superoxide anion levels result in the test on human neutrophils [5] is “increased superoxide anion levels”.

Turning to IL-12: cytokine, the “cytolysis by NK/NKT cells” value in the test on Colon-26 cells is given as “significant increases”. In the test on VEE virus [8], the “survival of lethally VEE-infected mice” value is “increased survival, but not significantly”. In addition, the “reduction of VEE titers in the lungs compared to control animals” value in the test with VEE virus [9] was around 1.5 log10. Further, the superoxide anion levels result in the test on human neutrophils [5] is recorded as “increased superoxide anion levels”. Moreover, in the test with B. anthracis (Sterne), the survival result is reported as “increased survival”.

As to platelet activating factor [PAF], the “GM-CSF-induced IL-8 production” value with human neutrophils [6] (PAF added to GM-CSF, FIG. 13) is reported as “enhances”. The “IL-8 production by neutrophils” value in the test with human neutrophils [6] is “increased IL-8 production moderately”.

B1: IFN-γ: cytokine interferon-gamma (protein, UniProt P01579 24-161, looked up)
Interferon gamma: QDPYVKEAENLKKYFNAGHSDVADNGTLFLGILKNWKEESDRKIMQSQIVSFYFKLFKNFKDDQSIQKSVETIKEDMNVKFFNSNKKKRDDFEKLTNYSVTDLNVQRKAIHELIQVMAELSPAAKTGKRKRSQMLFRG
B1: the nitric oxide production entry in test [1] is recorded as “increased nitric oxide production dramatically”. In the test with vaccinia virus [2], the “effect of cytokine on cell wall-enhanced vaccinia virus clearance” value is “possible weak synergetic effect”, the “plaque forming units relative to cell wall treatment” value is listed as “reduced the number of plaque forming units even further” and the “reduction in VV titer” value was determined as 95%. Besides, the “cytolysis by NK/NKT cells” value in the test with Colon-26 cells is reported as “moderate increases”. In addition, the “nitric oxide production by PECs” value in test [10] is recorded as “significant increases”. In addition, the “vaccinia virus-induced cytopathic effect” value in the test with vaccinia virus [11] is listed as “appeared to be reduced”. Further, in the test on VEE virus [8], the “survival of lethally VEE-infected mice” value is on record as “increased survival”. For the same molecule, the “reduction of VEE titers in the lungs compared to control animals” value with VEE virus [9] is reported as around 0.5 log10. Moreover, the superoxide anion levels entry in the test with human neutrophils [5] was “increased superoxide anion levels”. Further, in the test on B. anthracis (Sterne), the survival result was “increased survival” and the mice still alive is listed as 10%. In [7], the mice remained alive was 100%, the mice still alive was 100% and the “protection against lethal VV (strain WR) challenge” value is given as “complete protection”. Further, in the test on murine PECs, the “increase of cell wall-induced nitric oxide production” value is 10 to 20 µM.
